Test results taken from patent US20240209027A1, “PEPTIDE AND PEPTIDE-CONTAINING COMPOSITION” (PeptiAID Inc.,, priority 2021, published 2024).
Where two headings read alike, the source gives them in different places. Starred links: 1 amine or outer side, 2 acyl side, 3 side chain; linkers in the order of their positions; H or OH if unused. Positions of bridges follow the written chain, without caps; N, C: chain ends. Non-standard residues stand in square brackets, D forms with d. Residues, ends and D or L forms follow the SMILES beside them. Chains are numbered I, II in the order given. ξ: configuration not given here. *: point of attachment. X5 = O=C(O)CCCCCCCCCCCCC(=O)N[C@@H](CCC(=O)N[C@@H](CCCCN*)C(=O)O)C(=O)O; X4 = O=C(O)CCCCCCCCCCC(=O)N[C@@H](CCC(=O)N[C@@H](CCCCN*)C(=O)O)C(=O)O; Ala(piperidin-4-yl) = O=C([C@H](CC1CCN([*:3])CC1)N[*:1])[*:2]; Ala(indan-2-yl) = N[C@@H](CC1Cc2ccccc2C1)C(=O)O; Phe(4-COOH) = N[C@@H](Cc1ccc(C(=O)O)cc1)C(=O)O; Phe(4-F) = N[C@@H](Cc1ccc(F)cc1)C(=O)O; C12 diacid = O=C(O)CCCCCCCCCCC(=O)*; X1 = C[C@@H](Cc1ccc(O)cc1)C(=O)*; 3Pal = N[C@@H](Cc1cccnc1)C(=O)O; NMeE = CN[C@@H](CCC(=O)O)C(=O)O; dNMeE = CN[C@H](CCC(=O)O)C(=O)O; Cha = N[C@@H](CC1CCCCC1)C(=O)O; Cit = NC(=O)NCCC[C@H](N)C(=O)O; NMeNle = CCCC[C@H](NC)C(=O)O; hCys = N[C@@H](CCS)C(=O)O; ξαMeS = CC(N)(CO)C(=O)O; X2 = O=C(C[*:1])[*:2]; Aib = CC(C)(N)C(=O)O; Sar = CNCC(=O)O

What was measured:
Format in all cases: cell-based
[1] = system: SARS-CoV-2-derived S protein, Delta strain
[2] = target: SARS-CoV-2-derived S protein, Alpha strain (Severe acute respiratory syndrome coronavirus 2, UniProt P0DTC2, DEL69-70/DEL144-144/N501Y/A570D/D614G/P681H/T716I/S982A/D1118H, form not given)
[3] = target: SARS-CoV-2-derived S protein, Beta strain (Severe acute respiratory syndrome coronavirus 2, UniProt P0DTC2, D80A/D215G/DEL241-243/K417N/E484K/N501Y/D614G/A701V, form not given)
[4] = target: SARS-CoV-2-derived S protein, Gamma strain (Severe acute respiratory syndrome coronavirus 2, UniProt P0DTC2, L18F/T20N/P26S/D138Y/R190S/K417T/E484K/N501Y/D614G/H655Y/T1027I/V1176F, form not given)

Row | Structure (SMILES) | IC50 ([1]; Table 12) | Imax: % (at 500 nM) ([1]; Table 12) | Imax: % (at 500 nM) [2] | IC50 ([1]; Table 3) | Imax: % (at 500 nM) ([1]; Table 3) | Imax: % (at 500 nM) [3] | Imax: % (at 500 nM) [4]
1 | CCCC[C@H]1C(=O)NC(C)(C)C(=O)N[C@@H](CC2CCCCC2)C(=O)N[C@@H](Cc2ccc(F)cc2)C(=O)NC(C)(CO)C(=O)N[C@@H](Cc2ccc(O)cc2)C(=O)N[C@@H](Cc2ccc(O)cc2)C(=O)N[C@@H](Cc2ccc(C(=O)O)cc2)C(=O)N[C@@H](CC2CCNCC2)C(=O)N[C@@H](CC2CCCCC2)C(=O)N[C@H](C(=O)N[C@H](CCC(=O)O)C(N)=O)CSCC(=O)N(C)[C@@H](CCC(=O)O)C(=O)N1C (stereo partly shown) [Peptide 5555_p203] ({CH2CO}-[NMeE][NMeNle][Aib][Cha][Phe(4-F)][ξαMeS]YY[Phe(4-COOH)][Ala(piperidin-4-yl)][Cha]C[dE]-NH2; thioether N-12) | 0.5 nM | 101% |  |  |  |  | 
2 | CCCC[C@H]1C(=O)NC(C)(C)C(=O)N[C@@H](CC2CCCCC2)C(=O)N[C@@H](Cc2ccc(F)cc2)C(=O)N[C@H](CC(=O)O)C(=O)N[C@@H](Cc2ccc(O)cc2)C(=O)N[C@@H](Cc2ccc(O)cc2)C(=O)N[C@@H](CCCNC(N)=O)C(=O)N[C@H](CCCCN)C(=O)N[C@@H](CC2CCCCC2)C(=O)N[C@H](C(=O)N[C@H](CCC(=O)O)C(=O)NCCCC[C@H](NC(=O)CC[C@H](NC(=O)CCCCCCCCCCC(=O)O)C(=O)O)C(=O)O)CSCC(=O)N(C)[C@@H](CCC(=O)O)C(=O)N1C [Peptide 5555_p234] ({CH2CO}-[NMeE][NMeNle][Aib][Cha][Phe(4-F)][dD]YY[Cit][dK][Cha]C[dE]-X4; thioether N-12) | 5.9 nM | 99% |  |  |  |  | 
4 | CCCC[C@H]1C(=O)NC(C)(C)C(=O)N[C@@H](CC2CCCCC2)C(=O)N[C@@H](Cc2ccc(F)cc2)C(=O)NC(C)(C)C(=O)N[C@@H](Cc2ccc(O)cc2)C(=O)N[C@@H](Cc2ccc(O)cc2)C(=O)N[C@@H](Cc2ccc(C(=O)O)cc2)C(=O)N[C@@H](CC2CCNCC2)C(=O)N[C@@H](CC2CCCCC2)C(=O)N[C@H](C(=O)N[C@H](CCC(=O)O)C(N)=O)CSCC(=O)N(C)[C@@H](CCC(=O)O)C(=O)N1C [Peptide 5555_p020] ({CH2CO}-[NMeE][NMeNle][Aib][Cha][Phe(4-F)][Aib]YY[Phe(4-COOH)][Ala(piperidin-4-yl)][Cha]C[dE]-NH2; thioether N-12) |  |  | 100% |  |  | 100% | 100%
5 | CCCC[C@H]1C(=O)NC(C)(C)C(=O)N[C@@H](CC2Cc3ccccc3C2)C(=O)N[C@@H](Cc2ccc(F)cc2)C(=O)N(C)CC(=O)N[C@@H](Cc2ccc(O)cc2)C(=O)N[C@@H](Cc2ccc(O)cc2)C(=O)N[C@@H](CCCNC(N)=O)C(=O)N[C@H](CCCCN)C(=O)N[C@@H](CC2CCCCC2)C(=O)N[C@H](C(=O)N[C@H](CCC(=O)O)C(N)=O)CSCC(=O)N(C)[C@@H](CCC(=O)O)C(=O)N1C [Peptide 5555_p213] ({CH2CO}-[NMeE][NMeNle][Aib][Ala(indan-2-yl)][Phe(4-F)][Sar]YY[Cit][dK][Cha]C[dE]-NH2; thioether N-12) | 0.6 nM | 101% |  |  |  |  | 
6 | CCCC[C@H]1C(=O)NC(C)(C)C(=O)N[C@@H](CC2CCCCC2)C(=O)N[C@@H](Cc2ccc(F)cc2)C(=O)N[C@H](CC(=O)O)C(=O)N[C@@H](Cc2ccc(O)cc2)C(=O)N[C@@H](Cc2ccc(O)cc2)C(=O)N[C@@H](CCCNC(N)=O)C(=O)N[C@H](CCCCN)C(=O)N[C@@H](CC2CCCCC2)C(=O)N[C@H](C(=O)N[C@H](CCC(=O)O)C(N)=O)CSCC(=O)N[C@@H](Cc2cccnc2)C(=O)N1C [Peptide 5555_p177] ({CH2CO}-[3Pal][NMeNle][Aib][Cha][Phe(4-F)][dD]YY[Cit][dK][Cha]C[dE]-NH2; thioether N-12) | 2.8 nM | 97% |  |  |  |  | 
7 | CCCC[C@@H](C(=O)NC(C)(C)C(=O)N[C@@H](CC1CCCCC1)C(=O)N[C@@H](Cc1ccc(F)cc1)C(=O)N[C@H](CC(=O)O)C(N)=O)N(C)C(=O)[C@H](CCC(=O)O)N(C)C(=O)CSCC[C@H](NC(=O)[C@H](CC1CCCCC1)NC(=O)[C@@H](CCCCN)NC(=O)[C@H](CCCNC(N)=O)NC(=O)[C@H](Cc1ccc(O)cc1)NC(=O)[C@@H](C)Cc1ccc(O)cc1)C(=O)N[C@H](CCC(=O)O)C(=O)N[C@H](CCCCNC(=O)CCCCCCCCCCC(=O)O)C(N)=O [Peptide 5555_p221] (I: X1-Y[Cit][dK][Cha][hCys][dE][dK](C12 diacid)-NH2 / II: [NMeE][NMeNle][Aib][Cha][Phe(4-F)][dD]-NH2; linker I:5-II:N via X2) | 2.6 nM | 97% |  |  |  |  | 
8 | CCCC[C@H]1C(=O)NC(C)(C)C(=O)N[C@@H](CC2CCCCC2)C(=O)N[C@@H](Cc2ccc(F)cc2)C(=O)N(C)[C@H](CCC(=O)O)C(=O)N[C@@H](Cc2ccc(O)cc2)C(=O)N[C@@H](Cc2ccc(O)cc2)C(=O)N[C@@H](Cc2ccc(C(=O)O)cc2)C(=O)N[C@@H](CC2CCNCC2)C(=O)N[C@@H](CC2CCCCC2)C(=O)N[C@H](C(=O)N[C@H](CCC(=O)O)C(N)=O)CSCC(=O)N[C@@H](Cc2cccnc2)C(=O)N1C [Peptide 5555_p192] ({CH2CO}-[3Pal][NMeNle][Aib][Cha][Phe(4-F)][dNMeE]YY[Phe(4-COOH)][Ala(piperidin-4-yl)][Cha]C[dE]-NH2; thioether N-12) | 2.5 nM | 102% |  |  |  |  | 
9 | CCCC[C@H]1C(=O)NC(C)(C)C(=O)N[C@@H](CC2CCCCC2)C(=O)N[C@@H](Cc2ccc(F)cc2)C(=O)N[C@H](CC(=O)O)C(=O)N[C@@H](Cc2ccc(O)cc2)C(=O)N[C@@H](Cc2ccc(O)cc2)C(=O)N[C@@H](CCCNC(N)=O)C(=O)N[C@H](CCCCN)C(=O)N[C@@H](CC2CCCCC2)C(=O)N[C@H](C(=O)N[C@H](CCC(=O)O)C(=O)O)CSCC(=O)N(C)[C@@H](CCC(=O)O)C(=O)N1C [Peptide 5555_p028] ({CH2CO}-[NMeE][NMeNle][Aib][Cha][Phe(4-F)][dD]YY[Cit][dK][Cha]C[dE]-OH; thioether N-12) |  |  | 96% | […] | […] | 93% | 95%
10 | CCCC[C@H]1C(=O)NC(C)(C)C(=O)N[C@@H](CC2CCCCC2)C(=O)N[C@@H](Cc2ccc(F)cc2)C(=O)N[C@H](CC(=O)O)C(=O)N[C@@H](Cc2ccc(O)cc2)C(=O)N[C@@H](Cc2ccc(O)cc2)C(=O)N[C@@H](CCCNC(N)=O)C(=O)N[C@H](CCCCN)C(=O)N[C@@H](CC2CCCCC2)C(=O)N[C@H](C(=O)N[C@H](CCC(=O)O)C(=O)NCCCC[C@H](NC(=O)CC[C@H](NC(=O)CCCCCCCCCCCCC(=O)O)C(=O)O)C(=O)O)CSCC(=O)N(C)[C@@H](CCC(=O)O)C(=O)N1C [Peptide 5555_p235] ({CH2CO}-[NMeE][NMeNle][Aib][Cha][Phe(4-F)][dD]YY[Cit][dK][Cha]C[dE]-X5; thioether N-12) | 7 nM | 99% |  |  |  |  | 
11 | CCCC[C@H]1C(=O)NC(C)(C)C(=O)N[C@@H](CC2Cc3ccccc3C2)C(=O)N[C@@H](Cc2ccc(F)cc2)C(=O)N2CCC[C@H]2C(=O)N[C@@H](Cc2ccc(O)cc2)C(=O)N[C@@H](Cc2ccc(O)cc2)C(=O)N[C@@H](CCCNC(N)=O)C(=O)N[C@H](CCCCN)C(=O)N[C@@H](CC2CCCCC2)C(=O)N[C@H](C(=O)N[C@H](CCC(=O)O)C(N)=O)CSCC(=O)N(C)[C@@H](CCC(=O)O)C(=O)N1C [Peptide 5555_p216] ({CH2CO}-[NMeE][NMeNle][Aib][Ala(indan-2-yl)][Phe(4-F)]PYY[Cit][dK][Cha]C[dE]-NH2; thioether N-12) | 0.4 nM | 102% |  |  |  |  | 
12 | CCCC[C@H]1C(=O)NC(C)(C)C(=O)N[C@@H](CC2CCCCC2)C(=O)N[C@@H](Cc2ccc(F)cc2)C(=O)NC(C)(CO)C(=O)N[C@@H](Cc2ccc(O)cc2)C(=O)N[C@@H](Cc2ccc(O)cc2)C(=O)N[C@@H](CCCNC(N)=O)C(=O)N[C@H](CCCCN)C(=O)N[C@@H](CC2CCCCC2)C(=O)N[C@H](C(=O)N[C@H](CCC(=O)O)C(N)=O)CSCC(=O)N(C)[C@@H](CCC(=O)O)C(=O)N1C (stereo partly shown) [Peptide 5555_p218] ({CH2CO}-[NMeE][NMeNle][Aib][Cha][Phe(4-F)][ξαMeS]YY[Cit][dK][Cha]C[dE]-NH2; thioether N-12) | 0.3 nM | 101% |  |  |  |  | 
